Values quoted from earlier work, collected in patent US9018178B2, “Method for the treatment of food, feed and agricultural products with a polyene antifungal compound” (DSM IP Assets B.V., priority 2007, dated 2015).

Test system: common food spoilage yeasts and moulds
Conditions: most strains of common food spoilage yeasts and moulds

C[C@@H]1C/C=C/C=C/C=C/C=C/[C@H](O[C@@H]2O[C@H](C)[C@@H](O)[C@H](N)[C@@H]2O)C[C@@H]2O[C@](O)(C[C@@H](O)C[C@H]3O[C@@H]3/C=C/C(=O)O1)C[C@H](O)[C@H]2C(=O)O [natamycin]
Concentrations inhibiting most strains: 1-15 ppm
